In ChEMBL document CHEMBL1159075, “The chemical synthesis and antibiotic activity of a diverse library of 2-aminobenzimidazole small molecules against MRSA and multidrug-resistant A. baumannii” (Bioorg Med Chem, 2010):
≈ marks a conversion by molar mass, not a printed value.

Assays:
[1] = test system: Acinetobacter baumannii; test: Antibacterial activity against Acinetobacter baumannii UH8407 after 16 to 20 hrs by microdilution susceptibility test; type: functional
[2] = test system: Acinetobacter baumannii; test: Antibacterial activity against Acinetobacter baumannii ATCC 19606 after 16 to 20 hrs by microdilution susceptibility test; type: functional; details: ATCC 19606 = CIP 70.34 = JCM 6841
[3] = test system: Acinetobacter baumannii; test: Antibacterial activity against Acinetobacter baumannii 3304 after 16 to 20 hrs by microdilution susceptibility test; type: functional
[4] = test system: Acinetobacter baumannii; test: Antibacterial activity against multidrug-resistant Acinetobacter baumannii BAA-1605 after 16 to 20 hrs by microdilution susceptibility test; type: functional
[5] = test system: Acinetobacter baumannii; test: Antibacterial activity against Acinetobacter baumannii AB0043 after 16 to 20 hrs by microdilution susceptibility test; type: functional
[6] = test system: Staphylococcus aureus; test: Antibacterial activity against methicillin-resistant Staphylococcus aureus BAA-44 after 16 to 20 hrs by microdilution susceptibility test; type: functional
[7] = test system: Staphylococcus aureus; test: Antibacterial activity against Staphylococcus aureus ATCC 29740 after 16 to 20 hrs by microdilution susceptibility test; type: functional
[8] = test system: Staphylococcus aureus; test: Antibacterial activity against Staphylococcus aureus ATCC 29213 after 16 to 20 hrs by microdilution susceptibility test; type: functional
[9] = test system: Staphylococcus aureus; test: Antibacterial activity against Staphylococcus aureus ATCC 25923 after 16 to 20 hrs by microdilution susceptibility test; type: functional
[10] = test system: Staphylococcus aureus; test: Ratio of MBC to MIC for Staphylococcus aureus BAA-44 after 16 to 20 hrs by microdilution susceptibility test
[11] = test system: Staphylococcus aureus; test: Antibacterial activity against methicillin-resistant Staphylococcus aureus BAA-44 at […] uM after 16 to 20 hrs by microdilution susceptibility test; type: functional
[12] = Toxicity in defibrinated sheep RBC assessed as hemolysis at 25 uM by UV spectrometry; type: cell-based, Ovis aries, Erythrocyte; details: defibrinated sheep red blood cells, read-out: Activity
[13] = Induction of pore-formation in synthetic 1-palmitoyl-2-oleoyl-sn-glycero-3-phosphoglycerol vesicles assessed as dye leakage at >500 uM; type: physicochemical
[14] = Induction of pore-formation in synthetic 1-palmitoyl-2-oleoyl-sn-glycero-3-phosphoglycerol vesicles assessed as dye leakage at 25 uM; type: physicochemical
[15] = Induction of pore-formation in synthetic 1-palmitoyl-2-oleoyl-sn-glycero-3-phosphocholine vesicles assessed as dye leakage at 25 uM; type: physicochemical

| Molecule | MIC [1] | MIC [2] | MIC [3] | MIC [4] | MIC [5] | MIC ([6]; Staphylococcus aureus, BAA-44) | MIC [7] | MIC [8] | MIC [9] | also measured |
| --- | --- | --- | --- | --- | --- | --- | --- | --- | --- | --- |
| CC1(C)S[C@@H]2[C@H](NC(=O)[C@H](N)c3ccccc3)C(=O)N2[C@H]1C(=O)O [AMPICILLIN] | > 400 µM | > 400 µM | > 400 µM | > 400 µM | > 400 µM |  |  |  |  |  |
| [N-]=[N+]=NCCc1ccsc1 | > 400 µM | > 400 µM |  | > 400 µM | > 400 µM |  |  |  |  |  |
| [N-]=[N+]=Nc1ccc(C(=O)Nc2ccc3[nH]c(N)nc3c2)cc1 |  |  |  |  |  | 400 µM (≈ 117 µg/mL) |  |  |  |  |
| CCCCCCS(=O)(=O)Nc1ccc2[nH]c(N)nc2c1 |  |  |  |  |  | 100 µM (≈ 29.6 µg/mL) | 100 µM (≈ 29.6 µg/mL) | 100 µM (≈ 29.6 µg/mL) |  |  |
| CCCCCc1ccc(-c2c[nH]c(N)n2)cc1 |  |  |  |  |  | 12.5 µM (≈ 2.87 µg/mL) |  |  |  |  |
| CCCCCc1ccc(C(=O)Nc2ccccc2)cc1 |  | > 400 µM |  |  |  | > 400 µM |  |  |  |  |
| GENTAMICIN | > 400 µM | 100 µM | > 400 µM | > 400 µM | 200 µM |  | 6.2 µM | 0.391 µM |  | MIC [6]: 200 µM |
| CCCCCCCCCCCCCCCCCC(=O)Nc1ccc2[nH]c(N)nc2c1 | > 400 µM | > 400 µM | > 400 µM | > 400 µM | > 400 µM |  |  |  |  |  |
| CCCCc1cn(-c2ccc(C(=O)Nc3ccc4[nH]c(N)nc4c3)cc2)nn1 |  |  |  |  |  | > 400 µM |  |  |  |  |
| COc1cccc(OC)c1C(=O)N[C@@H]1C(=O)N2[C@@H]1SC(C)(C)[C@@H]2C(=O)O [METHICILLIN] |  |  |  |  |  | > 400 µM |  | 3.13 µM (≈ 1.19 µg/mL) |  |  |
| CC(C)(C)c1ccc(C(=O)Nc2ccc3[nH]c(N)nc3c2)cc1 | 100 µM (≈ 30.8 µg/mL) | 100 µM (≈ 30.8 µg/mL) | 100 µM (≈ 30.8 µg/mL) | 100 µM (≈ 30.8 µg/mL) | 50 µM (≈ 15.4 µg/mL) | 50 µM (≈ 15.4 µg/mL) | 50 µM (≈ 15.4 µg/mL) | 50 µM (≈ 15.4 µg/mL) | 100 µM (≈ 30.8 µg/mL) |  |
| CCCCCc1ccc(C(=O)Nc2ccc3[nH]c(N)nc3c2)cc1.Cl | 25 µM | 25 µM | 25 µM | 12.5 µM | 12.5 µM | 12.5 µM | 6.25 µM | 12.5 µM | 12.5 µM | Ratio [10]: 2; MBC50 [6]: 5.88 µM; MBC90 [6]: 11.15 µM; MBC ([6]; Staphylococcus aureus, BAA-44): 25 µM; Activity [11]: 99.15%; hemolysis at 25 µM [12]: < 1%; Activity [13]: > 50%; Activity [14]: 16%; Activity [15]: 9% |
| O=C(O)c1cn(C2CC2)c2cc(N3CCNCC3)c(F)cc2c1=O [CIPROFLOXACIN] |  |  |  |  |  | 12.5 µM (≈ 4.14 µg/mL) | 0.391 µM (≈ 0.13 µg/mL) | 0.391 µM (≈ 0.13 µg/mL) |  |  |
| Nc1nc2cc(NS(=O)(=O)c3ccc4ccccc4c3)ccc2[nH]1 |  |  |  |  |  | 100 µM (≈ 33.8 µg/mL) |  | 100 µM (≈ 33.8 µg/mL) |  |  |
| CN(C)[C@@H]1C(O)=C(C(N)=O)C(=O)[C@@]2(O)C(O)=C3C(=O)c4c(O)cccc4[C@@](C)(O)[C@H]3C[C@@H]12 [TETRACYCLINE] | > 400 µM | 3.13 µM (≈ 1.39 µg/mL) | 25 µM (≈ 11.1 µg/mL) | > 400 µM | 6.25 µM (≈ 2.78 µg/mL) |  |  |  |  |  |
| NC[C@H]1O[C@H](O[C@H]2[C@H](O)[C@@H](O[C@H]3O[C@H](CO)[C@@H](O)[C@H](N)[C@H]3O)[C@H](N)C[C@@H]2N)[C@H](N)C[C@@H]1O [TOBRAMYCIN] | 200 µM (≈ 93.5 µg/mL) | 25 µM (≈ 11.7 µg/mL) | > 400 µM | 6.25 µM (≈ 2.92 µg/mL) | 200 µM (≈ 93.5 µg/mL) |  |  |  |  |  |
| C[C@@H](O)[C@H]1C(=O)N2C(C(=O)O)=C(SCCNC=N)C[C@H]12 [IMIPENEM ANHYDROUS] | 3.12 µM (≈ 0.935 µg/mL) | 0.391 µM (≈ 0.117 µg/mL) | 200 µM (≈ 59.9 µg/mL) | 50 µM (≈ 15 µg/mL) | 50 µM (≈ 15 µg/mL) |  |  |  |  |  |
| CCCCCCCCCCCC(=O)Nc1ccc2[nH]c(N)nc2c1 | 25 µM (≈ 8.26 µg/mL) | 25 µM (≈ 8.26 µg/mL) | 12.5 µM (≈ 4.13 µg/mL) | 12.5 µM (≈ 4.13 µg/mL) | 12.5 µM (≈ 4.13 µg/mL) | 12.5 µM (≈ 4.13 µg/mL) | 12.5 µM (≈ 4.13 µg/mL) | 25 µM (≈ 8.26 µg/mL) | 50 µM (≈ 16.5 µg/mL) |  |
| CCCCCCCCCCc1cn(-c2ccc(C(=O)Nc3ccc4[nH]c(N)nc4c3)cc2)nn1 |  |  |  |  |  | > 400 µM |  |  |  |  |
| CCCCCCC(=O)Nc1ccc2[nH]c(N)nc2c1 | > 400 µM | > 400 µM | > 400 µM | > 400 µM | 400 µM (≈ 104 µg/mL) |  |  |  |  |  |
| CCCCc1ccc(C(=O)Nc2ccc3[nH]c(N)nc3c2)cc1 | 50 µM (≈ 15.4 µg/mL) | 50 µM (≈ 15.4 µg/mL) | 100 µM (≈ 30.8 µg/mL) | 25 µM (≈ 7.71 µg/mL) | 25 µM (≈ 7.71 µg/mL) | 25 µM (≈ 7.71 µg/mL) | 12.5 µM (≈ 3.85 µg/mL) | 25 µM (≈ 7.71 µg/mL) | 25 µM (≈ 7.71 µg/mL) |  |
| CN[C@@H]1[C@H](O[C@H]2[C@H](O[C@H]3[C@H](O)[C@@H](O)[C@H](N=C(N)N)[C@@H](O)[C@@H]3N=C(N)N)O[C@@H](C)[C@]2(O)C=O)O[C@@H](CO)[C@H](O)[C@H]1O [STREPTOMYCIN] |  |  |  |  |  | > 200 µM | 0.391 µM (≈ 0.227 µg/mL) | 1.56 µM (≈ 0.907 µg/mL) |  |  |
| Nc1nc2cc(NC(=O)c3ccccc3)ccc2[nH]1 |  |  |  |  |  |  |  |  |  | hemolysis at 25 µM [12]: < 1% |
| CCCCCCc1ccc(C(=O)Nc2ccc3[nH]c(N)nc3c2)cc1 | 25 µM (≈ 8.41 µg/mL) | 50 µM (≈ 16.8 µg/mL) | 50 µM (≈ 16.8 µg/mL) | 12.5 µM (≈ 4.21 µg/mL) | 12.5 µM (≈ 4.21 µg/mL) | 12.5 µM (≈ 4.21 µg/mL) | 6.25 µM (≈ 2.1 µg/mL) | 12.5 µM (≈ 4.21 µg/mL) | 12.5 µM (≈ 4.21 µg/mL) |  |
| CCCCCCCc1ccc(C(=O)Nc2ccc3[nH]c(N)nc3c2)cc1 |  | 50 µM (≈ 17.5 µg/mL) | 50 µM (≈ 17.5 µg/mL) |  | 12.5 µM (≈ 4.38 µg/mL) | 25 µM (≈ 8.76 µg/mL) | 12.5 µM (≈ 4.38 µg/mL) | 25 µM (≈ 8.76 µg/mL) | 50 µM (≈ 17.5 µg/mL) |  |
| CCCCCCCCCC(=O)Nc1ccc2[nH]c(N)nc2c1 | 25 µM (≈ 7.56 µg/mL) | 25 µM (≈ 7.56 µg/mL) | 25 µM (≈ 7.56 µg/mL) | 25 µM (≈ 7.56 µg/mL) | 25 µM (≈ 7.56 µg/mL) | 25 µM (≈ 7.56 µg/mL) | 12.5 µM (≈ 3.78 µg/mL) | 12.5 µM (≈ 3.78 µg/mL) | 25 µM (≈ 7.56 µg/mL) |  |
| Nc1nc2cc(NC(=O)c3ccc(-c4ccccc4)cc3)ccc2[nH]1 |  | > 400 µM | > 400 µM |  | > 400 µM | > 400 µM | > 400 µM | > 400 µM | > 400 µM |  |
| CN[C@H](CC(C)C)C(=O)N[C@H]1C(=O)N[C@@H](CC(N)=O)C(=O)N[C@H]2C(=O)N[C@H]3C(=O)N[C@H](C(=O)N[C@H](C(=O)O)c4cc(O)cc(O)c4-c4cc3ccc4O)[C@H](O)c3ccc(c(Cl)c3)Oc3cc2cc(c3O[C@@H]2O[C@H](CO)[C@@H](O)[C@H](O)[C@H]2O[C@H]2C[C@](C)(N)[C@H](O)[C@H](C)O2)Oc2ccc(cc2Cl)[C@H]1O [VANCOMYCIN] |  |  |  |  |  | 0.391 µM (≈ 0.567 µg/mL) | 0.195 µM (≈ 0.283 µg/mL) | 0.391 µM (≈ 0.567 µg/mL) | 0.391 µM (≈ 0.567 µg/mL) |  |
